Source: the supplement of paper PMC10307832

What was measured:
Test in all cases: relative viability (nuclei count vs DMSO), 5 days (fraction); higher = more cells survive
AZD6482 + Crizotinib = compound: Cc1cc([C@@H](C)Nc2ccccc2C(=O)O)c2nc(N3CCOCC3)cc(=O)n2c1 [AZD6482] + C[C@@H](Oc1cc(-c2cnn(C3CCNCC3)c2)cnc1N)c1c(Cl)ccc(F)c1Cl [Crizotinib] (partner 1 µM)
Method in brief: (§1)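 Nuclei were stained with Hoechst during a one-step fixation (final 0.05% Triton X-100, 1% formaldehyde, 1 ug/ml Hoechst) carried out 5 days after dosing, then counted on 4× images. The cells, lung cancer lines in 1536-well plates, had been dosed by pin tool the day after seeding with one drug alone or a fixed anchor-drug dose plus five library-drug doses (not always all listed) in √10 steps. Relative viability is the nuclei count in treated wells divided by that in vehicle wells, and each value is the median of duplicate plates.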

[1] = compound: COc1cc2nc(N3CCCN(C)CC3)nc(NC3CCN(Cc4ccccc4)CC3)c2cc1OC + O=C(CCCCCCC(=O)Nc1ccccc1)NO [Vorinostat] (partner 1 µM)
Method in brief: as §1

AZD6482 + Foretinib = compound: Cc1cc([C@@H](C)Nc2ccccc2C(=O)O)c2nc(N3CCOCC3)cc(=O)n2c1 [AZD6482] + COc1cc2c(Oc3ccc(NC(=O)C4(C(=O)Nc5ccc(F)cc5)CC4)cc3F)ccnc2cc1OCCCN1CCOCC1 [Foretinib] (partner 0.25 µM)
Method in brief: as §1

[2] = compound: COc1cc2nc(N3CCCN(C)CC3)nc(NC3CCN(Cc4ccccc4)CC3)c2cc1OC + NC(=O)Nc1cc(-c2cccc(F)c2)sc1C(=O)N[C@H]1CCCNC1 [AZD7762] (partner 0.2 µM)
Method in brief: as §1

Row | Cell Line | relative viability (AZD6482 + Crizotinib; first compound 0.08 µM) | relative viability (AZD6482 + Crizotinib; first compound 0.253 µM) | relative viability (AZD6482 + Crizotinib; first compound 0.8 µM) | relative viability (AZD6482 + Crizotinib; first compound 2.53 µM) | relative viability (AZD6482 + Crizotinib; first compound 8 µM) | relative viability ([1]; first compound 0.2 µM) | relative viability ([1]; first compound 0.6325 µM) | relative viability ([1]; first compound 2 µM) | relative viability ([1]; first compound 6.325 µM) | relative viability (AZD6482 + Foretinib; first compound 0.08 µM) | relative viability (AZD6482 + Foretinib; first compound 0.253 µM) | relative viability (AZD6482 + Foretinib; first compound 0.8 µM) | relative viability (AZD6482 + Foretinib; first compound 2.53 µM) | relative viability (AZD6482 + Foretinib; first compound 8 µM) | relative viability ([2]; first compound 0.2 µM) | relative viability ([2]; first compound 0.6325 µM) | relative viability ([2]; first compound 2 µM) | relative viability ([2]; first compound 6.325 µM)
1 | 201T | 0.998 | 0.991 | 1.09 | 0.944 | 1.04 | 0.968 | 0.983 | 0.952 | 0.939 | 1.07 | 1.01 | 1.11 | 0.734 | 1.08 | 0.657 | 0.619 | 0.492 | 0.602
2 | A549 | 0.73 | 0.722 | 0.754 | 0.405 | 0.431 | – | – | – | – | 0.898 | 0.842 | 0.979 | 0.596 | 0.743 | – | – | – | –
3 | A-427 | 0.747 | 0.858 | 0.788 | 0.732 | 0.962 | 0.865 | 0.827 | 0.882 | 0.851 | 0.959 | 0.937 | 1.13 | – | 1.05 | 0.785 | 0.681 | 0.756 | 0.775
4 | ABC-1 | 0.853 | 0.969 | 1.03 | 0.899 | 0.801 | 0.959 | 1.23 | 1.13 | 0.917 | 0.868 | 1.21 | 1.03 | 0.86 | 0.719 | 0.753 | 0.772 | 0.79 | 0.91
5 | BEN | 0.876 | 0.769 | 0.913 | 0.655 | 0.827 | 0.608 | 0.54 | 0.636 | 0.552 | 0.675 | 0.62 | 0.701 | 0.558 | 0.739 | 0.8 | 0.82 | 0.752 | 0.736
6 | CAL-12T | 0.572 | 0.662 | 0.853 | 0.455 | 0.794 | 0.558 | 0.626 | 0.925 | 0.767 | 1.11 | 1.22 | 1.2 | 0.792 | 1 | 0.725 | 0.615 | 0.614 | 0.595
7 | COR-L23 | 0.467 | 0.733 | 0.749 | 0.489 | 0.478 | 0.536 | 0.406 | 0.561 | 0.286 | 0.888 | 1.04 | 1.03 | 0.81 | 0.799 | – | – | – | –
8 | COR-L 105 | 0.8 | 0.742 | 0.742 | 0.581 | 0.828 | 0.805 | 1.04 | 0.728 | 0.595 | 1.08 | 0.711 | 1.03 | 0.744 | 0.932 | – | – | – | –
9 | Calu-6 | 0.701 | 0.741 | 0.796 | 0.639 | 0.782 | – | – | – | – | 0.789 | 0.815 | 0.9 | 0.644 | 0.765 | – | – | – | –
10 | ChaGo-K-1 | 1.11 | – | 0.744 | 1.23 | 1.12 | 0.784 | 0.749 | 0.779 | 0.717 | 0.973 | 0.863 | 0.833 | 0.894 | 0.968 | 0.911 | 0.852 | 0.882 | 0.856
11 | EBC-1 | 0.19 | 0.154 | 0.212 | 0.216 | 0.2 | – | – | – | – | 0.102 | 0.104 | 0.124 | 0.0931 | 0.115 | – | – | – | –
12 | EKVX | 0.855 | 0.939 | 0.788 | 0.537 | 0.584 | 0.703 | 0.721 | 0.541 | 0.722 | 0.746 | 0.654 | 0.921 | 0.542 | 0.614 | 0.795 | 0.713 | 0.815 | 0.657
13 | EMC-BAC-2 | 0.66 | 0.717 | 0.858 | 0.617 | 0.653 | 0.431 | 0.427 | 0.448 | 0.508 | 0.861 | 0.94 | 0.969 | 0.718 | 0.698 | 1.06 | 1.16 | 1.07 | 1.29
14 | EPLC-272H | 0.796 | – | 0.835 | 0.649 | 0.584 | 0.423 | 0.4 | 0.38 | 0.335 | 0.621 | 0.426 | 0.506 | 0.378 | 0.256 | 0.209 | 0.209 | 0.184 | 0.258
15 | H3255 | 0.869 | 0.819 | 0.841 | 0.534 | 0.714 | 0.77 | 0.796 | 0.858 | 0.772 | 1.03 | 0.662 | 0.898 | 0.498 | 0.627 | 0.911 | 0.86 | 0.972 | 0.795
16 | HARA | 0.857 | 1.04 | 0.839 | – | 0.899 | 0.584 | 0.63 | 0.515 | 0.51 | 0.811 | 0.809 | 0.889 | 0.663 | 0.61 | 0.306 | 0.337 | 0.453 | 0.266
17 | HCC-15 | 0.755 | 0.729 | 0.763 | 0.699 | 0.869 | 0.85 | 0.884 | 0.909 | 0.81 | 0.989 | 0.882 | 1.01 | 0.853 | 0.988 | 1.28 | 1.2 | 1.15 | 1.34
18 | HCC-44 | 0.671 | 0.884 | 0.965 | 0.901 | 0.523 | 1.11 | 1.12 | 1.17 | 1.12 | – | – | – | – | – | 1.04 | 0.995 | 0.994 | 1.01
19 | HCC-78 | 0.295 | 0.322 | 0.245 | 0.227 | 0.235 | 0.495 | 0.442 | 0.462 | 0.429 | 0.471 | 0.493 | 0.517 | 0.351 | 0.349 | 0.588 | 0.675 | 0.67 | 0.717
20 | HCC-366 | 0.304 | 0.447 | 0.395 | 0.453 | 0.472 | 0.332 | 0.33 | 0.254 | 0.284 | 0.938 | 0.897 | 0.936 | 0.759 | 0.447 | 0.232 | 0.203 | 0.272 | 0.258
